The text below walks through data of US11839613B2, “Pyrimidine derivatives as PGE2 receptor modulators” (IDORSIA PHARMACEUTICALS LTD, priority 2017, dated 2023).

In experiment [1] the target is PTGER2 (EP2) (Homo sapiens (Human), UniProt P43116). Description: hEP2 b-arrestin assay (PathHunter HEK 293 PTGER2 b-arrestin cells). It is filed as cell-based. The note with it: antagonistic activity, beta-arrestin assay; read-out: hEP2 b-arr IC50. The method, then:
Plate is pre-incubated 15 minutes at 37° C. Then five microliters of PGE2 (final conc. 5 μM) are transferred into the assay plate. Plate is incubated 120 minutes at 37° C.
(each concentration is measured in duplicate)

Experiment [2] deals with PTGER4 (EP4) (Homo sapiens (Human), UniProt P35408). Description: cell-based.
PTGER4 (EP4), sequence (P35408 whole entry): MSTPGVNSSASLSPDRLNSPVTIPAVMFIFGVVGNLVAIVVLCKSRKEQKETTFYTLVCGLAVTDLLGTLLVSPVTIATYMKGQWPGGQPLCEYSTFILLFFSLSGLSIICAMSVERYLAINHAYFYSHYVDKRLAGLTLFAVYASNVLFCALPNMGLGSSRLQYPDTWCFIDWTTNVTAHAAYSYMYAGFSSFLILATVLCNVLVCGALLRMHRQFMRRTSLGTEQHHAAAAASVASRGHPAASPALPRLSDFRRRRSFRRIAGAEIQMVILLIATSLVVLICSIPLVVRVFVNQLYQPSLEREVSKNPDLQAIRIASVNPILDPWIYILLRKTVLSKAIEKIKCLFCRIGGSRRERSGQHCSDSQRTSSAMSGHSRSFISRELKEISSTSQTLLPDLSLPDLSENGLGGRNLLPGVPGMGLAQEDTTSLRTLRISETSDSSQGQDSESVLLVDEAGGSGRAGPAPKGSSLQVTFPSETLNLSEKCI
Text: The system is based on the Enzyme Fragment Complementation Technology. Two complementing fragments of the b-galactosidase enzyme are expressed within stably transfected cells. The larger portion of b-gal, termed EA for Enzyme Acceptor, is fused to the C-terminus of b-arrestin 2. The smaller fragment, termed ProLink™ tag, is fused to PTGER2 (EP2) or PTRGER4 (EP4) at the C-terminus. Upon activation, b-arrestin is recruited which forces the interaction of ProLink and EA, allowing complementation of the two fragments of b-gal and the formation of a functional enzyme which is capable of hydrolysing the substrate and generating a chemiluminescent signal.
Plate is incubated at 37° C., 5% CO2 for 24 hours.
Stock solutions of test compounds are made at a concentration of 10 mM in DMSO, and serially diluted in DMSO to concentrations required for inhibition dose response curves (tested concentration range 10 μM-2 nM or 1 μM-0.2 nM).
Five microliters of diluted compounds are transferred into the assay plate. Plate is pre-incubated 15 minutes at 37° C. Then five microliters of PGE2 (final conc. 20 nM) are transferred into the assay plate. Plate is incubated 120 minutes at 37° C.
Twelve I of reagent are transferred to the assay plate and incubate for 1 hour at RT in the dark. Luminescence counts are read on a BMG Fluostar Optima reader according to manufacturer's instructions.
For each compound concentration calculate of the percentage of activity compared to DMSO control value as average ±STDEV. (each concentration is measured in duplicate)

PTGER2 (EP2), sequence (P43116 whole entry): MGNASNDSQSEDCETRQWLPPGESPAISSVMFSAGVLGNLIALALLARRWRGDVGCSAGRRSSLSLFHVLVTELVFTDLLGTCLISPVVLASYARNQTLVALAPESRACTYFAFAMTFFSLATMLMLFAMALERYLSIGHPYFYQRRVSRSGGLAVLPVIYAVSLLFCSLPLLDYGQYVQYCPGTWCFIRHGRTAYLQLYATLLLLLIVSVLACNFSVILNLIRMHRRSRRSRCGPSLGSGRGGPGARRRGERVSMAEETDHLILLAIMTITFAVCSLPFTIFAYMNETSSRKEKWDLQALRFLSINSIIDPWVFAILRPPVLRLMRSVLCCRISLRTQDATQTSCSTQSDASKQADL

In the case of `Cc1c(CCNc2cc(-c3ccc(CC(=O)O)c(OC(F)F)c3)ncn2)ccc2c1OCCO2` [Example 511, (2-Difluoromethoxy-4-{6-[2-(5-methyl-2,3-dihydro-benzo[1,4]dioxin-6-yl)-ethylamino]-pyrimidin-4-yl}-phenyl)-acetic acid], the results for the IC50 in experiment [1] and in experiment [2] were 304 nM and 423 nM, respectively.
As to `COc1cc2c(c(C)c1CCNc1cc(-c3ccc(C(=O)O)c(OC4CCC4)c3)ncn1)OCCO2` [Example 396, 2-Cyclobutoxy-4-{6-[2-(7-methoxy-5-methyl-2,3-dihydro-benzo[1,4]dioxin-6-yl)-ethylamino]-pyrimidin-4-yl}-benzoic acid], the results for the IC50 in experiment [1] and in experiment [2] were 2 nM and 44 nM, respectively.
As to `O=c1[nH]c(-c2ccc(-c3cc(NCCc4cc(F)c5sccc5c4)ncn3)cc2)no1` [Example 529, 3-(4-(6-((2-(7-fluorobenzo[b]thiophen-5-yl)ethyl)amino)pyrimidin-4-yl)phenyl)-[1,2,4]oxadiazol-5(4H)-one], the IC50 (as a rule, the concentration needed to halve the response being measured) in experiment [1] was 699 nM; in experiment [2] it was 55 nM.
Taken in the same sequence, the figures for `C#Cc1cc2c(cc1CCNc1cc(-c3ccc(CC(=O)O)c(OC)c3)ncn1)OCCO2` [Example 503, (4-{6-[2-(7-Ethynyl-2,3-dihydro-benzo[1,4]dioxin-6-yl)-ethylamino]-pyrimidin-4-yl}-2-methoxy-phenyl)-acetic acid] were 102 nM and 157 nM.
On the same counts, the results for `CCCc1cc(-c2cc(NCCc3cc(F)c4sccc4c3)ncn2)ccc1C1(C(=O)O)CC1` [Example 557, 1-(4-{6-[2-(7-Fluoro-benzo[b]thiophen-5-yl)-ethylamino]-pyrimidin-4-yl}-2-propyl-phenyl)-cyclopropanecarboxylic acid] are 994 nM and 117 nM.
On the same counts, the results for `CCCc1cc(-c2cc(NCCc3cc(F)c4sccc4c3)ncn2)ccc1C(=O)NCCO` [Example 460, 4-{6-[2-(7-Fluoro-benzo[b]thiophen-5-yl)-ethylamino]-pyrimidin-4-yl}-N-(2-hydroxy-ethyl)-2-propyl-benzamide] are 207 nM and 161 nM.
`CC(C)Oc1cc(-c2cc(NCCc3cc(F)c4sccc4c3)ncn2)ccc1C(=O)O` [Example 491, 4-{6-[2-(7-Fluoro-benzo[b]thiophen-5-yl)-ethylamino]-pyrimidin-4-yl}-2-isopropoxy-benzoic acid]: the values for the IC50 in experiment [1] and in experiment [2] were 372 nM and 148 nM, respectively.
Taken in the same sequence, the figures for `CCCc1cc(-c2cc(NCCc3ccc4sccc4c3F)ncn2)ccc1C(C)C(=O)O` (racemic) [Example 482, rac-2-(4 -{6-[2-(4-Fluoro-benzo[b]thiophen-5-yl)-ethylamino]-pyrimidin-4-yl}-2-propyl-phenyl)-propionic acid] were 444 nM and 91 nM.
Taken in the same sequence, the figures for `CCCc1cc(-c2cc(NCCc3c(OC)cc4c(c3C)OCCO4)ncn2)ccc1CC(=O)O` [Example 397, (4-{6-[2-(7-Methoxy-5-methyl-2,3-dihydro-benzo[1,4]dioxin-6-yl)-ethylamino]-pyrimidin-4-yl}-2-propyl-phenyl)-acetic acid] were 7 nM and 35 nM.
Taken in the same sequence, the figures for `CSc1cc(-c2cc(NCCc3ccc4scc(Cl)c4c3)ncn2)ccc1C(=O)O` [Example 429, 4-{6-[2-(3-Chloro-benzo[b]thiophen-5-yl)-ethylamino]-pyrimidin-4-yl}-2-methylsulfanyl-benzoic acid] were 52 nM and 60 nM.
As to `O=C(O)Cc1ccc(-c2cc(NCCc3ccc4scc(Cl)c4c3)ncn2)cc1OC(F)(F)F` [Example 499, (4-{6-[2-(3-Chloro-benzo[b]thiophen-5-yl)-ethylamino]-pyrimidin-4-yl}-2-trifluoromethoxy-phenyl)-acetic acid], the IC50 was determined as 180 nM in experiment [1] and 169 nM in experiment [2].
On the same counts, the results for `COc1cc2ccccc2c(C)c1CCNc1cc(-c2ccc(CC(=O)O)c(OC(F)F)c2)ncn1` [Example 443, (2-Difluoromethoxy-4-{6-[2-(3-methoxy-1-methyl-naphthalen-2-yl)-ethylamino]-pyrimidin-4-yl}-phenyl)-acetic acid] are 107 nM and 29 nM.
Taken in the same sequence, the figures for `COc1cc2c(cc1CCNc1cc(-c3ccc(C(=O)O)c(OC(C)C)c3)ncn1)OCCO2` [Example 493, 2-Isopropoxy-4-{6-[2-(7-methoxy-2,3-dihydro-benzo[1,4]dioxin-6-yl)-ethylamino]-pyrimidin-4-yl}-benzoic acid] were 642 nM and 497 nM.
On the same counts, the results for `CCOc1cc(-c2cc(NCCc3ccc4sccc4c3F)ncn2)ccc1CC(=O)O` [Example 368, (2-Ethoxy-4-{6-[2-(4-fluoro-benzo[b]thiophen-5-yl)-ethylamino]-pyrimidin-4-yl}-phenyl)-acetic acid] are 221 nM and 66 nM.
Turning to `Cc1cc(-c2cc(NCCc3cc(F)c4sccc4c3)ncn2)cc(Cl)c1CC(=O)O` [Example 546, (2-Chloro-4-{6-[2-(7-fluoro-benzo[b]thiophen-5-yl)-ethylamino]-pyrimidin-4-yl}-6-methyl-phenyl)-acetic acid], the half-inhibitory concentration (IC50) in experiment [1] worked out at 980 nM; in experiment [2], 166 nM.
Taken in the same sequence, the figures for `CCCc1cc(-c2cc(NCCc3cc4c(cc3OC)OCCO4)ncn2)ccc1CC(=O)O` [Example 387, (4-{6-[2-(7-Methoxy-2,3-dihydro-benzo[1,4]dioxin-6-yl)-ethylamino]-pyrimidin-4-yl}-2-propyl-phenyl)-acetic acid] were 61 nM and 49 nM.
Turning to `CCOc1cc(-c2cc(NCCc3c(OC)cc4ccccc4c3C)ncn2)cc(F)c1CC(=O)O` [Example 374, (2-Ethoxy-6-fluoro-4-{6-[2-(3-methoxy-1-methyl-naphthalen-2-yl)-ethylamino]-pyrimidin-4-yl}-phenyl)-acetic acid], the IC50 in experiment [1] is 334 nM; in experiment [2], 52 nM.
Taken in the same sequence, the figures for `CCCc1cc(-c2cc(NCCc3cc(F)c4sccc4c3)ncn2)ccc1C(N)=O` [Example 457, 4-{6-[2-(7-Fluoro-benzo[b]thiophen-5-yl)-ethylamino]-pyrimidin-4-yl}-2-propyl-benzamide] were 200 nM and 176 nM.
Taken in the same sequence, the figures for `CCCc1cc(-c2cc(NCCc3cc(C)c4sccc4c3)ncn2)ccc1C(=O)O` [Example 478, 4-{6-[2-(7-Methyl-benzo[b]thiophen-5-yl)-ethylamino]-pyrimidin-4-yl}-2-propyl-benzoic acid] were 788 nM and 242 nM.
On the same counts, the results for `CCOc1cc(-c2cc(NCCc3cc(F)c4sccc4c3)ncn2)ccc1C(=O)C(=O)O` [Example 537, (2-Ethoxy-4-{6-[2-(7-fluoro-benzo[b]thiophen-5-yl)-ethylamino]-pyrimidin-4-yl}-phenyl)-oxo-acetic acid] are 670 nM and 76 nM.
With `COc1cc2c(c(C)c1CCNc1cc(-c3ccc(CC(=O)O)c(OC(F)F)c3)ncn1)OCCO2` [Example 441, (2-Difluoromethoxy-4-{6-[2-(7-methoxy-5-methyl-2,3-dihydro-benzo[1,4]dioxin-6-yl)-ethylamino]-pyrimidin-4-yl}-phenyl)-acetic acid], the values for the IC50 in experiment [1] and in experiment [2] were 10 nM and 53 nM, respectively.
